Test results from ChEMBL document CHEMBL1156519, “Roles for two aminopeptidases in vacuolar hemoglobin catabolism in Plasmodium falciparum” (J Biol Chem, 2007).
The source made the active and inactive calls. No cut-off for these calls is given here. Peptide text beside a SMILES is read from it. * marks the point of attachment. CH2F = FC*

Legend:
[1] = Inhibition of DPAP1 assessed as blocking of release of beta-naphthylamine from Ala-Pro-Ala-betaNA substrate at 1 uM
[2] = Inhibition of DPAP1 assessed as blocking of release of beta-naphthylamine from Ala-Pro-Ala-betaNA substrate at 1 uM in presence of recombinant Plasmodium falciparum aminopeptidase P
[3] = test system: Plasmodium falciparum; assay: Antimalarial activity as inhibition of Plasmodium falciparum 3D7 replication in medium + isoleucine after 65 hrs; format: functional, organism-based; conditions: 3D7, 65 h
[4] = test system: Plasmodium falciparum; assay: Antimalarial activity as DNA content of ring stage Plasmodium falciparum 3D7 in medium with all amino acids by flow cytometry; format: functional, organism-based
[5] = test system: Plasmodium falciparum; assay: Antimalarial activity as inhibition of Plasmodium falciparum 3D7 replication in medium with all amino acids after 65 hrs; format: functional, organism-based; conditions: 3D7, 65 h
[6] = test system: Plasmodium falciparum; assay: Inhibition of aminopeptidase N in Plasmodium falciparum food vacuole extract
[7] = test system: Plasmodium falciparum; assay: Antimalarial activity as DNA content of ring stage Plasmodium falciparum 3D7 in medium + isoleucine by flow cytometry; format: functional, organism-based

| Compound | Activity [1] | Activity [2] | EC50 [3] | Activity [4] | EC50 [5] | Activity [6] | Activity [7] |
| --- | --- | --- | --- | --- | --- | --- | --- |
| CC(C)CC(=O)N[C@H](C(=O)N[C@H](C(=O)N[C@@H](CC(C)C)[C@@H](O)CC(=O)N[C@@H](C)C(=O)N[C@@H](CC(C)C)[C@@H](O)CC(=O)O)C(C)C)C(C)C | inactive |  |  |  |  |  |  |
| CC(C)C[C@H](NC(=O)[C@H]1O[C@@H]1C(=O)O)C(=O)NCCCCN=C(N)N | inactive | inactive |  |  |  |  |  |
| N=C(N)NCCC[C@H](NC(=O)[C@@H]1CCCN1)C(=O)CF (H-Pro-Arg-CH2F) | Active | Active |  |  |  |  |  |
| CC(C)C[C@H](NC(=O)[C@@H](O)[C@H](N)Cc1ccccc1)C(=O)O [UBENIMEX] | inactive | inactive | 900 nM | Active | 1800 nM | Active | Active |
